Experimental data as given in article PMC11979885, “Mechanistic Investigation into the Phase Separation Behavior of Soluplus in the Presence of Biorelevant Media” (Molecular Pharmaceutics, 2025).
≈ marks a conversion by molar mass, not a printed value. Like-named read-outs stand apart in the source and are kept apart here.

What was measured:
Assay type in all cases: physicochemical
[1] = Equilibrium solubility of crystalline RO6897779 in FaSSIF-V1 with and without Soluplus
Description: The solubility of RO6897779 was determined in FaSSIF-V1 and in the presence of previously outlined Soluplus concentrations dissolved in FaSSIF-V1 to determine the apparent degree of supersaturation induced during solvent shift experiments. Samples were prepared by adding an excess amount of RO6897779 (≈5 mg) to 3 mL of the excipient solutions, or neat FaSSIF-V1 medium, and were stirred at 250 rpm at 37 °C (Mixdrive 15, 2MAG, München, Germany). Samples were equilibrated for 48 h. Solid–liquid separation was conducted by centrifugation at 11,500 g for 5 min using Ultrafree centrifugal units. The supernatant was immediately diluted with a 1:1 (v/v) mixture of acetonitrile and deionized water to fall into the linear region of the calibration curve during high-performance liquid chromatography (HPLC), as described under HPLC drug quantification below.
(§1) RO6897779 was quantified using reversed-phase HPLC. An Agilent 1200 series HPLC system (Agilent Technologies Inc., US) equipped with an Agilent Eclipse Plus C18 column (5 μm, 4.6 mm × 150 mm) was used for sample separation. Detection and quantification of RO6897779 were performed by using a variable wavelength detector set to 214 nm. The mobile phase consisted of (A) HPLC-grade deionized water and (B) and acetonitrile both containing 0.1% [v/v] formic acid. […] Data analysis was conducted using Agilent’s OpenLab CDS software Version 2.6.

[2] = DSC glass forming ability / crystallization tendency classification; settings: classification according to Baird et al.
Description: The manufactured spray-dried dispersion as well as the neat crystalline drug was investigated in triplicate using DSC to detect the presence of crystalline material and to gain information about the glass transition temperature (Tg) of the materials. For this purpose, a DSC 1 Star system instrument from Mettler-Toledo AG (Greifensee, Switzerland) was used. The instrument was calibrated for temperature and heat flow using indium, and the analysis was performed with an air flow rate of 150 mL min^–1. Samples were weighed into 40 μL aluminum pans (Mettler-Toledo AG, Greifensee, CH), sealed with pierced aluminum lids, and placed into the DSC. The analysis of the spray-dried dispersion was carried out as a heating cycle which heated the sample from RT to 190 °C at 10 K min^–1, followed by cooling down to −50 °C at −20 K min^–1 and finally reheating to 190 °C at 10 K min^–1. The analysis of the neat crystalline drug was carried out according to Baird et al.,[36] to evaluate the glass forming ability of the drug. The second heating ramp was used to measure the Tg without the influence of evaporating moisture.

[3] = Solvent shift supersaturation kinetics of RO6897779 in Soluplus solutions in FaSSIF-V1; settings: for apparent degree of supersaturation (aDS) induced: nominal 1 mg mL^–1 drug, FaSSIF-V1, 37 °C
Description: Solvent shift experiments were conducted in the Pion microDISS Profiler to assess the supersaturation kinetics of RO6897779 in the presence of Soluplus dissolved in FaSSIF-V1. […] Supersaturation kinetics were assessed at D/P ratios of 10, 20, 30, and 40% corresponding to the polymer concentrations outlined previously. The polymer was dissolved in FaSSIF-V1 at RT and subsequently heated to 37 °C. A concentrated DMSO stock solution was prepared at a concentration of 50 mg mL^–1 RO6897779. From this stock solution, an aliquot of 400 μL was spiked into 19.6 mL of preheated solvent shift medium, so that a nominal concentration of 1 mg mL^–1 RO6897779 was obtained without exceeding DMSO concentrations of 2% [v/v], while assuming a negligible residual solvent influence on solubility.[40] The solutions were stirred at 250 rpm and the temperature was maintained at 37 °C and continuously monitored. At time points of 5, 15, 30, 60, 120, 180, and 240 min, 2 × 200 μL aliquots were withdrawn. […] Subsequently, the supernatant of the media was diluted appropriately with an acetonitrile–water mixture. An intermission of 30 min was introduced as a change in Soluplus phase behavior was expected once the sample reached RT. It was assumed that this intermission would lead to a difference in the sampled concentration of RO6897779.
as §1

solubility at 48 h ([1]; FaSSIF-V1, 37 °C, fassif, thermodynamic from solid, Form I, pH = 6.5 ± 0, read-out: solubility in FaSSIF-V1): 22.9 µg/mL (≈ 48.2 µM)
solubility at 48 h ([1]; FaSSIF-V1 with Soluplus 1.50 mg mL^–1, aqueous with cosolvent or surfactant or cyclodextrin, thermodynamic from solid, FaSSIF-V1, Soluplus 1.50 mg mL^–1 (D/P 40%), 48 h, 37 °C, read-out: solubility): 69 µg/mL (≈ 145 µM)
solubility at 48 h ([1]; FaSSIF-V1 with Soluplus 2.33 mg mL^–1, aqueous with cosolvent or surfactant or cyclodextrin, thermodynamic from solid, FaSSIF-V1, Soluplus 2.33 mg mL^–1 (D/P 30%), 48 h, 37 °C, read-out: solubility): 96.2 µg/mL (≈ 202 µM)
solubility at 48 h ([1]; FaSSIF-V1 with Soluplus 4.00 mg mL^–1, aqueous with cosolvent or surfactant or cyclodextrin, thermodynamic from solid, FaSSIF-V1, Soluplus 4.00 mg mL^–1 (D/P 20%), 48 h, 37 °C, read-out: solubility): 130 µg/mL (≈ 274 µM)
solubility at 48 h ([1]; FaSSIF-V1 with Soluplus 9.00 mg mL^–1, aqueous with cosolvent or surfactant or cyclodextrin, thermodynamic from solid, FaSSIF-V1, Soluplus 9.00 mg mL^–1 (D/P 10%), 48 h, 37 °C, read-out: solubility): 215 µg/mL (≈ 452 µM)
solubility at 48 h ([1]; pH 6.5, thermodynamic from solid, neat FaSSIF-V1, Soluplus 0.00 mg mL^–1 (D/P 100%), 48 h, 37 °C, read-out: solubility): 22.9 µg/mL (≈ 48.2 µM)
crystallization tendency [2]: class III
apparent degree of supersaturation (aDS) induced ([3]; D/P 10%): 4.65
sampled drug concentration in solvent shift experiment ([3]; D/P 20%, FaSSIF-V1, after immediate centrifugation and after cooling to RT): 150–170 μg mL^–1
apparent degree of supersaturation (aDS) induced ([3]; D/P 20%): 7.7
apparent degree of supersaturation (aDS) induced ([3]; D/P 30%): 10.4
apparent degree of supersaturation (aDS) induced ([3]; D/P 40%): 14.5
SMILES: O=C(OCc1ccc(OC(F)(F)F)cc1)N1C[C@@H]2CN(C(=O)c3ccc4[nH]nnc4c3)C[C@H]2C1 [RO6897779]
